Experimental data reported in patent publication US12157746B2, “Tetrahydro-1H-pyrazino[2,1-a]isoindolylquinoline compounds for the treatment of autoimmune disease” (F. HOFFMANN-LA ROCHE AG, priority 2018, dated 2024).
In brackets after ≈: the same amount, converted by molar mass.

Key:
hERG K+ channel = target: T1, hERG K+ channel (Homo sapiens, UniProt Q12809); assay: hERG channel inhibition assay; format: cell-based; conditions: patch-clamp (voltage-clamp, whole-cell); for IC50: CHO cells expressing hERG; for IC20: human, CHO cells stably expressing hERG
T1 construct: expressed in transfected cells; host or cells: CHO (Chinese hamster ovary) cells, CHOhERG
T1 sequence (Q12809 whole entry): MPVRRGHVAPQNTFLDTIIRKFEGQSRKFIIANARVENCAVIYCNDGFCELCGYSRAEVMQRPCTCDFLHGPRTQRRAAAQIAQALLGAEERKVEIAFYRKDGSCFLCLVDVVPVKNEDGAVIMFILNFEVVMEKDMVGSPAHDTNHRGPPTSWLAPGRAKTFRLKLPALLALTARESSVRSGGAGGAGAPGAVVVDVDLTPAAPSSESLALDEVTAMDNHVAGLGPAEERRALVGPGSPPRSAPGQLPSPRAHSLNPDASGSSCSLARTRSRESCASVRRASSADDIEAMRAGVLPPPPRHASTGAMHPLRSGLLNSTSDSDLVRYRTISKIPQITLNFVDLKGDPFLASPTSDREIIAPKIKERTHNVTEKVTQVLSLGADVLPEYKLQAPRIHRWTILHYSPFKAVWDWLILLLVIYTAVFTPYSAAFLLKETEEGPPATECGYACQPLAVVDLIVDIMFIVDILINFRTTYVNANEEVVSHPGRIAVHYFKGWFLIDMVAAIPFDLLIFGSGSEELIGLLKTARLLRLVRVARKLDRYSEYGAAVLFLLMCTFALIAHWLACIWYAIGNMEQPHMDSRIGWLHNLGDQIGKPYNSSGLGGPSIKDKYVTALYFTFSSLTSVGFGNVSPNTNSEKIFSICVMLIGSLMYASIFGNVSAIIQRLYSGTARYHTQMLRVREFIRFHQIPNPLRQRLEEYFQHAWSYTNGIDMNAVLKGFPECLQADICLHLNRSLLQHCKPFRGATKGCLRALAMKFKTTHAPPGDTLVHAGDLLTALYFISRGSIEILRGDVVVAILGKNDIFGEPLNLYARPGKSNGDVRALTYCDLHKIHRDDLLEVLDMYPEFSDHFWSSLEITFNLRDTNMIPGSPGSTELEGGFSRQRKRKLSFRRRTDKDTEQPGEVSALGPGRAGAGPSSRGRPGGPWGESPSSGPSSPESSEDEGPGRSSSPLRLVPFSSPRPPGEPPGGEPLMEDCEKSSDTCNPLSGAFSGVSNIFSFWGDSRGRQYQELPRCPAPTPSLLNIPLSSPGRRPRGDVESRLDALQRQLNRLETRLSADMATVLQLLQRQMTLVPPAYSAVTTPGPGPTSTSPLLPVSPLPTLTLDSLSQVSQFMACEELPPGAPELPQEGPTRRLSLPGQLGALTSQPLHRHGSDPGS
Procedure, shortened: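 Whole-cell voltage-clamp on CHO cells stably expressing human hERG, stimulated at 0.1 Hz. Compound applied at increasing concentrations, each held 3-10 min to steady state; IKhERG amplitude expressed relative to pre-drug control (100%).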

[1] = tested on: Balb/c 3T3 mouse fibroblasts; assay: 3T3 in vitro phototoxicity assay; format: cell-based; conditions: Neutral Red uptake
Excerpt: 3T3 In Vitro Phototoxicity Assay
Phototoxicity is defined as a toxic response that is elicited after the first exposure of the skin to certain chemicals and subsequent exposure to light, or that is induced similarly by skin irradiation after systemic administration of a chemical substance. The assay used in this study is designed to detect the phototoxic potential of a chemical by using a simple in vitro cytotoxicity assay with Balb/c 3T3 mouse fibroblasts. The principle of this test is a comparison of the cytotoxicity of a chemical when tested with and without exposure to a non-toxic dose of UVA-light. Cytotoxicity is expressed as a dose dependent reduction of the growth rate of cells as determined by uptake of the vital dye Neutral Red one day after treatment.
A small amount of substance was weighed and formulated freshly in DMSO just before the start of the exposure of the cells. This stock solution or appropriate dilutions with DMSO were added to the cell suspensions to obtain the required final concentrations. All solutions were generally prepared in Eppendorf caps and discarded after use.
For this study the Neutral Red uptake (NRU) assay of Borenfreund and Puemer (Borenfreund, E, Puemer J A. Toxicity determined in vitro by morphological alterations and Neutral Red absorption. Toxicology Lett. 1985; 24:119-124) modified according to INVITTOX protocol No 78 (ERGATT/FRAME data bank of in vitro techniques in toxicology. INVITTOX PROTOCOL No 78. 3T3 NRU Phototoxicity Assay. March 1994) has been adapted to examine a possible phototoxic potential of the test item. This assay is based on the active uptake of the Neutral Red dye into the lysosomes of cultured murine fibroblasts. Because lysosomal membranes are known to be a site of action of many phototoxic compounds, this assay can provide a measure of potential for phototoxic injury.
A murine fibroblasts clone A 31 (ATCC no. CCL 163—passage No. 108) were cultured in 175 cm2 tissue culture grade flasks, containing sDMEM (Dulbecco's Minimal Essential Medium, supplemented with 10% fetal calf serum, 2 mM L-glutamine, 100 units/ml Penicillin and 100 μg/ml streptomycin) at 37° C. in a humidified atmosphere of 6% C02. Before cells approach confluence they were removed from flasks by trypsinisation. Prior to use in an assay, the cells were transferred to 96-well microtiter plates at a concentration of 1×10^4 cells/well in 100 μl volumes of sDMEM and allowed to attach for 24 h.
For incubation with murine fibroblasts, the test item was diluted in PBS/3% DMSO (detailed concentrations see in results).
Culture medium (Dulbecco's Modified Eagle Medium (DMEM), GlutaMAX (Gibco Ref 21885-025), 10% Fetal Bovine Serum (FBS) (Gibco Ref 10270-106), 100 IU/ml Penicillin and 100 μg/ml Streptomycin (Gibco Ref 15140-122)) was removed from the wells and murine fibroblasts were washed with PBS. Afterwards 100 μL of PBS/3% DMSO containing the test item was added and target cells were incubated for 1 h at 37° C. with 6% CO2.
For each test item the microtiter plates were prepared according to Table 4. “UVA plates” were exposed to approx. 5 J/cm2 UVA light, the “Dark plates” were kept in the dark and served as cytotoxicity control. Plates with chlorpromazine hydrochloride served as positive control. UV flux was measured with a UV-meter (Dr. Gröbel RM21).
Following UV irradiation, the test item was removed from the wells (one washing step with PBS) and replaced with sDMEM. Target cells were then incubated overnight at 37° C. in 6% CO2.
Each plate contained wells with cells and solvent but without test item which were either not incubated with Neutral Red solution (0% standard—S1) or were stained with Neutral Red (100% standard—S2) for calculation of the standard cell viability curve. Wells labeled with U01-U08 contained the different test item concentrations.
After the incubation the wells to be assayed were filled with 100 μL of the sDMEM containing Neutral Red. […]

Row | SMILES | IC50 (hERG K+ channel) [µM] | IC20 (hERG K+ channel) [µM] | Phototoxicity factor ([1]; Factor=IC50(−UV)/IC50(+UV), cut-off factor >5) | IC50 ([1]; Mus musculus, BALB/c3T3, light or radiation study, with approx. 5 J/cm2 UVA light) [µg/mL]
1 | C[C@H]1CN(c2ccc(C#N)c3ncccc23)C[C@H]2c3ccc(N4CCNCC4)cc3CN12 [Example 2, 5-[(4S,10bR)-4-methyl-8-piperazin-1-yl-3,4,6,10b-tetrahydro-1H-pyrazino[2,1-a]isoindol-2-yl]quinoline-8-carbonitrile] | > 20 | > 10 |  | 
2 | C[C@@H]1CN(c2ccc(C#N)c3ncccc23)C[C@@H]2c3ccc(NCC4COCCN4)cc3CN12 (stereo partly drawn) [Example 57, 5-[(4R,10bS)-4-methyl-8-(morpholin-3-ylmethylamino)-3,4,6,10b-tetrahydro-1H-pyrazino[2,1-a]isoindol-2-yl]quinoline-8-carbonitrile] | > 20 | > 10 |  | 
3 | C[C@@H]1CN(c2ccc(C#N)c3ncccc23)C[C@@H]2c3ccc(NC[C@H]4CNCCO4)cc3CN12 [Example 59, 5-[(4R,10bS)-4-methyl-8-[[(2R)-morpholin-2-yl]methylamino]-3,4,6,10b-tetrahydro-1H-pyrazino[2,1-a]isoindol-2-yl]quinoline-8-carbonitrile] | > 20 | > 10 |  | 
4 | CO[C@@H]1CNC[C@@H]1Nc1ccc2c(c1)CN1[C@H](C)CN(c3ccc(C#N)c4ncccc34)C[C@H]21 [Example 60, 5-[(4R,10bS)-8-[[(3S,4R)-4-methoxypyrrolidin-3-yl]amino]-4-methyl-3,4,6,10b-tetrahydro-1H-pyrazino[2,1-a]isoindol-2-yl]quinoline-8-carbonitrile] | > 20 | > 10 |  | 
5 | CO[C@H]1CNC[C@@H]1N(C)c1ccc2c(c1)CN1[C@H](C)CN(c3ccc(C#N)c4ncccc34)C[C@H]21 [Example 64, 5-[(4R,10bS)-8-[[(3S,4S)-4-methoxypyrrolidin-3-yl]-methyl-amino]-4-methyl-3,4,6,10b-tetrahydro-1H-pyrazino[2,1-a]isoindol-2-yl]quinoline-8-carbonitrile] | > 20 | 8.5 |  | 
6 | C[C@@H]1CN(c2ccc(C#N)c3ncccc23)C[C@@H]2c3ccc(NCCN4CC[C@H](O)C4)cc3CN12 [Example 68, 5-[(4R,10bS)-8-[2-[(3S)-3-hydroxypyrrolidin-1-yl]ethylamino]-4-methyl-3,4,6,10b-tetrahydro-1H-pyrazino[2,1-a]isoindol-2-yl]quinoline-8-carbonitrile] | > 20 | 5.6 |  | 
7 | C[C@@H]1CN(c2ccc(C#N)c3ncccc23)C[C@@H]2c3ccc(N4C[C@H]5CNCCN5C4=O)cc3CN12 [Example 72, 5-[(4R,10bS)-8-[(8aR)-3-oxo-1,5,6,7,8,8a-hexahydroimidazo[1,5-a]pyrazin-2-yl]-4-methyl-3,4,6,10b-tetrahydro-1H-pyrazino[2,1-a]isoindol-2-yl]quinoline-8-carbonitrile] | > 20 | > 10 |  | 
8 | [2H]c1ccc2c(N3C[C@@H](C)N4Cc5cc(N6CC7(CNCCO7)C6)ccc5[C@H]4C3)ccc(C#N)c2n1 [Example 90, 5-[(4R,10bS)-4-methyl-8-(5-oxa-2,8-diazaspiro[3.5]nonan-2-yl)-3,4,6,10b-tetrahydro-1H-pyrazino[2,1-a]isoindol-2-yl]-2-deuterio-quinoline-8-carbonitrile] |  |  | >2 | 50.6 (≈ 108 µM)
